For the experiment, the target named is Wild-type cruzipain (Trypanosoma cruzi, UniProt P25779). The experiment is described as follows: Trypanosoma cruzi cruzipain peptidase activity assay (Ki). As to conditions: read-out: Ki, inhibitors of cruzain and cruzipains. It counts as biochemical. As to the method: Unless otherwise stated, all general chemicals and biochemicals were purchased from either the Sigma Chemical Company, Poole, Dorset, U.K or from Fisher Scientific UK, Loughborough, Leicestershire, U.K. Absorbance assays were carried out in flat-bottomed 96-well plates (Spectra; Greiner Bio-One Ltd., Stonehouse, Gloucestershire, U.K.) using a SpectraMax PLUS384 plate reader (Molecular Devices, Crawley, U.K.). Fluorescence high throughput assays were carried out in either 384-well microtitre plates (Corning Costar 3705 plates, Fisher Scientific) or 96-well ‘U’ bottomed Microfluor W1 microtitre plates (Thermo Labsystems, Ashford, Middlesex, U.K.). Fluorescence assays were monitored using a SpectraMax Gemini fluorescence plate reader (Molecular Devices). For substrates employing either a 7-amino-4-methylcoumarin (AMC) or a 7-amino-4-trifluoromethylcoumarin (AFC) fluorophore, assays were monitored at an excitation wavelength of 365 nm and an emission wavelength of 450 nm and the fluorescence plate reader calibrated with AMC. For substrates employing a 3-amino-benzoyl (Abz) fluorophore, assays were monitored at an excitation wavelength of 310 nm and an emission wavelength of 445 nm; the fluorescence plate reader calibrated with 3-amino-benzamide (Fluka). Unless otherwise indicated, all the peptidase substrates were purchased from Bachem UK, St Helens, Merseyside, UK. Substrates utilizing fluorescence resonance energy transfer methodology (i.e. FRET-based substrates) were synthesized at Incenta Limited using published methods (Atherton & Sheppard, Solid Phase Peptide Synthesis, IRL Press, Oxford, U.K, 1989) and employed Abz (2-aminobenzoyl) as the fluorescence donor and 3-nitro-tyrosine [Tyr(NO2)] as the fluorescence quencher (Meldal, M. and Breddam, K., Anal. Biochem, 195, 141-147, 1991). Hydroxyethylpiperazine ethanesulfonate (HEPES), tris-hydroxylmethyl aminomethane (tris) base, bis-tris-propane and all the biological detergents (e.g. CHAPS, zwittergents, etc.) were purchased from CN Biosciences UK, Beeston, Nottinghamshire, U.K. Glycerol was purchased from Amersham Pharmacia Biotech, Little Chalfont, Buckinghamshire, U.K. Stock solutions of substrate or inhibitor were made up to 10 mM in 100% dimethylsulfoxide (DMSO) (Rathburns, Glasgow, U.K.) and diluted as appropriately required. In all cases the DMSO concentration in the assays was maintained at less than 1% (vol./vol.).
Assay protocols were based on literature precedent (Table 4; Barrett, A. J., Rawlings, N. D. and Woessner, J. F., 1998, Handbook of Proteolytic Enzymes, Academic Press, London and references therein) and modified as required to suit local assay protocols. Enzyme was added as required to initiate the reaction and the activity, as judged by the change in fluorescence upon conversion of substrate to product, was monitored over time. All assays were carried out at 25±1° C.
Wild-type cruzipain, derived from Trypanosoma cruzi Dm28 epimastigotes, was obtained from Dr. Julio Scharfstein (Instituto de Biofisica Carlos Chagas Filho, Universidade Federal do Rio de Janeiro, Rio de Janeiro, Brazil). Activity assays were carried out in 100 mM sodium phosphate, pH 6.75 containing 1 mM EDTA and 10 mM L-cysteine using 2.5 nM enzyme. […] The rate of conversion of substrate to product was derived from the slope of the increase in fluorescence monitored continuously over time.
The apparent inhibition constant (Ki) for each compound was determined on the basis that inhibition was reversible and occurred by a pure-competitive mechanism. The Ki values were calculated, from the dependence of enzyme activity as a function of inhibitor concentration, by direct regression analysis (Prism v 3.02) using Equation 2 (Cornish-Bowden, A., 1995.). [formula]

Sequence of Wild-type cruzipain (P25779 whole entry): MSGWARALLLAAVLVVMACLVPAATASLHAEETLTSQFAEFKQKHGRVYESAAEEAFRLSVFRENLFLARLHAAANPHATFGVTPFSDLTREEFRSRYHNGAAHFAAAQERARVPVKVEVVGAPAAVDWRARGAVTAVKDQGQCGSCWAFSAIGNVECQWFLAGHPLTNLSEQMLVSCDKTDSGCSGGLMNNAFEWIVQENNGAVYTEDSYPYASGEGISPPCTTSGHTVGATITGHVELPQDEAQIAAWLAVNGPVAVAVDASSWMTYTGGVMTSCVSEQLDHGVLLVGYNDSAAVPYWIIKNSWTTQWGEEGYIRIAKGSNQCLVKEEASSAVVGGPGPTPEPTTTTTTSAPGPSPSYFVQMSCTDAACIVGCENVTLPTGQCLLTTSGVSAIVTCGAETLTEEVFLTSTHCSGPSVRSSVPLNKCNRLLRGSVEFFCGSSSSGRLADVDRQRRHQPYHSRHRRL

Consider `CC(=O)N[C@@H](C)C(=O)N1CC(=O)[C@@H]2[C@H]1CCN2C(=O)[C@H](CC(C)C)NC(=O)c1ccc(N(C)C)cc1` [Example 197, (3aR,6aS)-N-{(1S)-1-[4-((2S)-2-Acetylamino-propionyl)-6-oxo-hexahydro-pyrrolo[3,2-b]pyrrole-1-carbonyl]-3-methyl-butyl}-4-dimethylamino-benzamide], for which the inhibitory constant (Ki) (commonly the equilibrium dissociation constant of an inhibitor or competing ligand from its target) was below 5 µM.
For the compound `CC(C)C[C@H](NC(=O)c1ccc(N(C)C)cc1)C(=O)N1CC[C@@H]2[C@H]1C(=O)CN2C(=O)c1ccc(S(C)(=O)=O)s1` [Example 51, (3aR,6aS)-4-Dimethylamino-N-{(1S)-1-[4-(5-methanesulfonyl-thiophene-2-carbonyl)-6-oxo-hexahydro-pyrrolo[3,2-b]pyrrole-1-carbonyl]-3-methyl-butyl}-benzamide], the Ki was below 5 µM.
For `O=C(N[C@@H](Cc1ccc(O)cc1)C(=O)N1CC[C@@H]2[C@H]1C(=O)CN2C(=O)c1ccccc1)c1cccnc1` [Example 336, (3aR,6aS)-N-[(1S)-2-(4-Benzoyl-6-oxo-hexahydro-pyrrolo[3,2-b]pyrrol-1-yl)-1-(4-hydroxy-benzyl)-2-oxo-ethyl]-nicotinamide], the Ki is below 5 µM.
With `CC(C)C[C@H](NC(=O)c1ccc(N(C)C)cc1)C(=O)N1CC[C@@H]2[C@H]1C(=O)CN2C(=O)c1cccc[n+]1[O-]` [Example 80], the Ki is below 5 µM.
For the compound `CC(C)C[C@H](NC(=O)c1ccc(N(C)C)cc1)C(=O)N1CC[C@@H]2[C@H]1C(=O)CN2C(=O)C1CCCO1` (stereo partly drawn) [Example 238, (3aR,6aS)-4-Dimethylamino-N-{(1S)-3-methyl-1-[6-oxo-4-(tetrahydro-furan-2-carbonyl)-hexahydro-pyrrolo[3,2-b]pyrrole-1-carbonyl]-butyl}-benzamide], the inhibition constant (Ki) is below 5 µM.
As for `CC(C)C[C@H](NC(=O)c1ccc(N(C)C)cc1)C(=O)N1CC[C@@H]2[C@H]1C(=O)CN2C(=O)c1ccc[n+]([O-])c1` [Example 81, (3aR,6aS)-4-Dimethylamino-N-{(1S)-3-methyl-1-[6-oxo-4-(1-oxy-pyridine-3-carbonyl)-hexahydro-pyrrolo[3,2-b]pyrrole-1-carbonyl]-butyl}-benzamide], the inhibitory constant (Ki) is below 5 µM.
To `CC(C)C[C@H](NC(=O)c1ccc(N(C)C)cc1)C(=O)N1CC[C@@H]2[C@H]1C(=O)CN2C(=O)C1(N)CCCC1` [Example 224] belongs below 5 µM; to `CC(C)C[C@H](NC(=O)c1ccc(N(C)C)cc1)C(=O)N1CC[C@@H]2[C@H]1C(=O)CN2C(=O)C1CCCNC1` (stereo partly drawn) [Example 140, (3aR,6aS)-4-Dimethylamino-N-{(1S)-3-methyl-1-[6-oxo-4-(piperidine-3-carbonyl)-hexahydro-pyrrolo[3,2-b]pyrrole-1-carbonyl]-butyl}-benzamide], below 5 µM.
With `CC(C)C[C@H](NC(=O)c1ccc(N(C)C)cc1)C(=O)N1CC[C@@H]2[C@H]1C(=O)CN2C(=O)[C@H]1CCCN1` [Example 157, (3aR,6aS)-4-Dimethylamino-N-{(1S)-3-methyl-1-[6-oxo-4-((2R)-pyrrolidine-2-carbonyl)-hexahydro-pyrrolo[3,2-b]pyrrole-1-carbonyl]-butyl}-benzamide] the figure was below 5 µM; with `O=C(N[C@@H](Cc1cc(F)cc(F)c1)C(=O)N1CC[C@@H]2[C@H]1C(=O)CN2C(=O)c1ccccc1)c1cccc(Br)c1` [Example 343, (3aR,6aS)-N-[(1S)-2-(4-Benzoyl-6-oxo-hexahydro-pyrrolo[3,2-b]pyrrol-1-yl)-1-(3,5-difluoro-benzyl)-2-oxo-ethyl]-3-bromo-benzamide], below 5 µM.
To `CC(=O)NCC(=O)N1CC(=O)[C@@H]2[C@H]1CCN2C(=O)[C@H](CC(C)C)NC(=O)c1ccc(N(C)C)cc1` [Example 199, (3aR,6aS)-N-{(1S)-1-[4-(2-Acetylamino-acetyl)-6-oxo-hexahydro-pyrrolo[3,2-b]pyrrole-1-carbonyl]-3-methyl-butyl}-4-dimethylamino-benzamide] belongs below 5 µM.
With `CC(C)C[C@H](NC(=O)c1ccc(N(C)C)cc1)C(=O)N1CC[C@@H]2[C@H]1C(=O)CN2C(=O)CN1CCNCC1` [Example 241, (3aR,6aS)-4-Dimethylamino-N-{(1S)-3-methyl-1-[6-oxo-4-(2-piperazin-1-yl-acetyl)-hexahydro-pyrrolo[3,2-b]pyrrole-1-carbonyl]-butyl}-benzamide], the inhibitory constant (Ki) was below 5 µM.
`CC(C)(C)c1ccc(C(=O)N[C@@H](Cc2cccs2)C(=O)N2CC[C@@H]3[C@H]2C(=O)CN3C(=O)c2cccnc2)cc1` [Example 23, (3aR,6aS)-4-tert-Butyl-N-{(1S)-2-oxo-2-[6-oxo-4-(pyridine-3-carbonyl)-hexahydro-pyrrolo[3,2-b]pyrrole-1-yl]-1-thiophen-2-ylmethyl-ethyl}-benzamide]: the Ki was below 5 µM.
Turning to `CCC[C@H](N)C(=O)N1CC(=O)[C@@H]2[C@H]1CCN2C(=O)[C@H](CC(C)C)NC(=O)c1ccc(N(C)C)cc1` [Example 210, (3aR,6aS)-N-{(1S)-1-[4-((2S)-2-Amino-pentanoyl)-6-oxo-hexahydro-pyrrolo[3,2-b]pyrrole-1-carbonyl]-3-methyl-butyl}-4-dimethylamino-benzamide], the Ki is below 5 µM.
To `Cc1ccc(C(=O)N[C@@H](Cc2ccc(O)cc2)C(=O)N2CC[C@@H]3[C@H]2C(=O)CN3C(=O)c2ccccc2)cc1Br` [Example 337, (3aR,6aS)-N-[(1S)-2-(4-Benzoyl-6-oxo-hexahydro-pyrrolo[3,2-b]pyrrol-1-yl)-1-(4-hydroxy-benzyl)-2-oxo-ethyl)-3-bromo-4-methyl-benzamide] belongs below 5 µM; to `Cc1ccc(C(=O)N2CC(=O)[C@@H]3[C@H]2CCN3C(=O)[C@H](Cc2ccc(O)cc2)NC(=O)c2cccc(Br)c2)cc1` [Example 328, (3aR,6aS)-3-Bromo-N-{(1S)-1-(4-hydroxy-benzyl)-2-[4-(4-methyl-benzoyl)-6-oxo-hexahydro-pyrrolo[3,2-b]pyrrole-1-yl]-2-oxo-ethyl}-benzamide], below 5 µM.
On to `CC(C)C[C@H](NC(=O)c1ccc(C(C)(C)C)cc1)C(=O)N1CC[C@@H]2[C@H]1C(=O)CN2C(=O)c1ccc2c(c1)OCCO2` [Example 30, (3aR,6aS)-4-tert-Butyl-N-{(1S)-1-[4-(2,3-dihydro-benzo[1,4]dioxine-6-carbonyl)-6-oxo-hexahydro-pyrrolo[3,2-b]pyrrole-1-carbonyl]-3-methyl-butyl}-benzamide], for which the Ki is below 5 µM.
To `CN(C)c1ccc(C(=O)N[C@@H](Cc2ccc(O)cc2)C(=O)N2CC[C@@H]3[C@H]2C(=O)CN3C(=O)c2cccc(F)c2)cc1` [Example 322] belongs below 5 µM; to `CC(C)C[C@H](NC(=O)c1ccc(N(C)C)cc1)C(=O)N1CC[C@@H]2[C@H]1C(=O)CN2C(=O)[C@@H](N)CO` [Example 206, (3aR,6aS)-N-{(1S)-1-[((2S)-2-Amino-3-hydroxy-propionyl)-6-oxo-hexahydro-pyrrolo[3,2-b]pyrrole-1-carbonyl]-3-methyl-butyl}-4-dimethylamino-benzamide], below 5 µM.
With `CC(C)C[C@H](NC(=O)c1ccc(N(C)C)cc1)C(=O)N1CC[C@@H]2[C@H]1C(=O)CN2C(=O)C1(N)CCC1` [Example 223, (3aR,6aS)-N-{(1S)-1-[4-(1-Amino-cyclobutanecarbonyl)-6-oxo-hexahydro-pyrrolo[3,2-b]pyrrole-1-carbonyl]-3-methyl-butyl}-4-dimethylamino-benzamide] the figure was below 5 µM; with `CC(=O)N(C)[C@@H](CC(C)C)C(=O)N1CC(=O)[C@@H]2[C@H]1CCN2C(=O)[C@H](CC(C)C)NC(=O)c1ccc(N(C)C)cc1` [Example 221, (3aR,6aS)-N-((1S)-1-{4-[(2S)-2-(Acetyl-methyl-amino)-4-methyl-pentanoyl]-6-oxo-hexahydro-pyrrolo[3,2-b]pyrrole-1-carbonyl}-3-methyl-butyl)-4-dimethylamino-benzamide], below 5 µM.

For the origin of these results see patent US20060100431A1, “Biologically active compounds” (Amura Therapeutics Limited, priority 2002, published 2006).
